Measured values from US5235045A, “Non-azo naphthalimide dyes” (priority 1992, dated 1993).
Like-named read-outs stand apart in the source and are kept apart here.

Assays:
[1] = Bleaching in distearoylphosphatidyl choline vesicles; format: physicochemical; details: irradiated vesicles
Method: (§1) The dye was incorporated into synthetic vesicles as described above. The vesicles were irradiated with a 150-W Oriel xenon arc lamp at a distance of 4 cm from the lens at a thermostated temperature of 20° C. The change in fluorescence intensity with time was determined above, and the results plotted as a standard first order plot.

H9 cells [2] = assay: Take-up of Ed6Br by H9 cells; format: cell-based, human; details: for Cellular Ed6Br: 22° C.
Method: H9 cells (an immortal human T-cell lymphoma) were cultured in RPMI-1640 medium containing 10% additional fetal calf serum held in air with a 5% CO2 atmosphere at 37.5° C. to a cell density in the range of 10^5 -10^7 per ml. Cells were harvested by centrifugation and four 3-milliliter aliquots containing 5×10^5 H9 cells per ml suspended in RPM I-1640 medium with 10% additional fetal calf serum were prepared. […] The fourth aliquot served as a dye-free control. Immediately after addition of the dyes, 1 ml samples were harvested from each aliquot and the cells washed by dilution into 3 ml phosphate buffered saline (pH 7.3), followed by two repetitions of centrifugation, decantation of the supernatant, and resuspension of the cell pellet in the buffered saline solution, and a final centrifugation, decantation, and retention of the cell pellet at 4° C. for subsequent analysis. At the subsequent elapsed incubation times at 1, 2, 3, and 4 hrs., one milliliter samples were harvested and treated in an identical fashion. After treatment of the 4-hr. sample, the cells of each sample were lysed in 3 ml of an 0.1% solution of ctyltetraammonium bromide detergent in phosphate buffered saline (pH=7.3). The fluorescence emission at 520 nm (420 nm excitation) of each sample was determined with a SLM SPT 500C spectrofluorometer. Additionally, the emission intensity of samples of these detergent solutions having, respectively, dye concentrations of […] were prepared as standards for calibrating the concentration dependence of the fluorescence emission.

[3] = Bleaching kinetics in synthetic vesicles; format: physicochemical; details: 150-W xenon arc lamp, 20° C.
Method: as §1

H9 cells [4] = assay: Effect of Ed6Br and 420 nm light on H9 cells (Trypan Blue); format: cell-based, human; design: live cells / dead cells: unit not given here
Method: H9 cells (an immortal human T-cell lymphoma) were cultured in RPMI-1640 medium containing 10% additional fetal calf serum hold in air with a 5% CO2 atmosphere at 37.5° C. to a cell density in the range of 10^5 -10^7 per ml. Cells were, harvested by centrifugation and six 3ml. […] The remaining 3 samples wrapped in aluminum foil were handled identically but not irradiated. Immediately after irradiation, the cells in all samples were sedimented by centrifugation at 450 x g for 10 minutes and the cell pellets individually resuspended to the original 3 ml volume of RPMI-1640 containing an additional 10% fetal calf serum plus Gentamycin antibiotic. The samples were incubated for 24 hr. under normal culture conditions cited above. Cell viability was assessed by Trypan Blue dye exclusion counts using a standard hemocytometer after 24 hr incubation. […]

H9 cells [5] = assay: Effects on H9 cells of Ed6Br with prior activation by 420 nm light (Trypan Blue); format: cell-based; details: Homo sapiens, H9, 24 h, read-out: % Viable Cells
[6] = Bleaching and recovery of fluorescence in aqueous suspension of Cremophor EL; format: physicochemical; details: for % Un-irradiated Fluorescence / initially activated species permanently losing fluorescence / initially activated species recovering fluorescence: Cremophor EL
Method: A 14.9 millimolar stock solution of Ed6Br in Cremophor EL was used to make 3 ml of a micellar Cremophor suspension having a concentration averaged over the entire sample volume of […]. A […] aliquot was removed and diluted with 2.9 ml of distilled water for measurement of fluorescence using an SLM 500C spectrofluorometer (excitation, 420 nm, emission, 520 nm). The 3 ml sample was divided into two 1.5 ml aliquots placed in quartz crusetts. One sample was irradiated with stirring with 420 # 5 nm filtered light from a xenon arc lamp with an irradiance of 20 mW/cm^2 and with the companion sample wrapped in aluminum foil (dark control) and maintained alongside of the irradiated sample. […] After the entire light treatment, both the illuminated and dark control samples were divided into two equal aliquots and held pairwise (dark+previously illuminated) at 4° C. and 20° C. in the absence of light. Aliquots of […] were taken from each sample after 18 and 43 hr and their fluorescence emission values determined using the SLM 500C instrument immediately after sampling.
In an experiment eventually following the protocol described immediately above in Part I (for Ed6Br), the light-induced bleaching of DiEd6Br with 200 J/cm^2 light exposure and recovery of its fluorescence upon standing in the dark at 22° C. were determined.

[7] = tested on: Human High Density Lipoprotein (HDL), Apoprotein I; assay: Protein crosslinking with DiEd6Br: HDL; format: biochemical; details: 25.0 μM, 400 J/cm^2
[8] = tested on: F-actin polymers of G-actin; assay: Protein crosslinking with DiEd6Br: F-actin; format: biochemical; details: 40.0 μM, 400 J/cm^2
[9] = 4 hr, external 25 mM (so in the source)
[10] = 5 μM, irradiated 10 J/cm^2, 420 nm
[11] = 25 μM, irradiated 10 J/cm^2, 420 nm

What does the source list for `CCCCCCNc1c(Br)cc2c3c(cccc13)C(=O)N(CCCCCC)C2=O` [Compound VII, 3-bromo-4-(hexyl)amino-N-hexyl-1,8-naphthalimide]?
bleaching [1]: do not bleach; photodegradation of the dye [1]: only very slow photodegradation; average dye concentration in H9 cell (H9 cells [2]; [9]): about 1.92 millimolar; cellular over external concentration (H9 cells [2]; [9]): approximately 77 times; increased concentration of the dye by the cell (H9 cells [2]; 4 hr, external 1 and 5 mm (so in the source)): ~70 fold; Cellular Ed6Br (H9 cells [2]; external 1 μM, 0 hr, 1 a° mol = 1 × 10^-18 mol): 91.2 a° mol/cell; Cellular Ed6Br (H9 cells [2]; external 1 μM, 1 hr): 130.2 a° mol/cell; Cellular Ed6Br (H9 cells [2]; external 1 μM, 2 hr): 189.8 a° mol/cell; Cellular Ed6Br (H9 cells [2]; external 1 μM, 3 hr): 186.0 a° mol/cell; Cellular Ed6Br (H9 cells [2]; external 1 μM, 4 hr): 208.3 a° mol/cell; Cellular Ed6Br (H9 cells [2]; external 5 μM, 0 hr): 165.6 a° mol/cell; Cellular Ed6Br (H9 cells [2]; external 5 μM, 1 hr): 385.1 a° mol/cell; Cellular Ed6Br (H9 cells [2]; external 5 μM, 2 hr): 437.2 a° mol/cell; Cellular Ed6Br (H9 cells [2]; external 5 μM, 3 hr): 468.8 a° mol/cell; Cellular Ed6Br (H9 cells [2]; external 5 μM, 4 hr): 548.9 a° mol/cell; Cellular Ed6Br (H9 cells [2]; external 25 μM, 0 hr): 316.2 a° mol/cell; Cellular Ed6Br (H9 cells [2]; external 25 μM, 1 hr): 716.3 a° mol/cell; Cellular Ed6Br (H9 cells [2]; external 25 μM, 2 hr): 1073.4 a° mol/cell; Cellular Ed6Br (H9 cells [2]; external 25 μM, 3 hr): 1689.3 a° mol/cell; Cellular Ed6Br (H9 cells [2]; external 25 μM, 4 hr): 1748.8 a° mol/cell; rate constant for bleaching ([3]; 0 mol % cholesterol): 1.08 ± 0.08 × 10^-3 s^-1; rate constant for bleaching ([3]; 15 mol % cholesterol): 2.00 ± 0.13 × 10^-3 s^-1; rate constant for bleaching ([3]; 30 mol % cholesterol): 3.08 ± 0.20 × 10^-3 s^-1; rate constant for bleaching ([3]; 45 mol % cholesterol): 3.1 ± 0.9 × 10^-3 s^-1; Cells/ml (H9 cells [4]; 5 μM, dark): 7.70 × 10^5 Cells/ml; dead cells (H9 cells [4]; 5 μM, dark): 12; live cells (H9 cells [4]; 5 μM, dark): 77; Cells/ml (H9 cells [4]; [10]): 0.0 Cells/ml; dead cells (H9 cells [4]; [10]): 47; live cells (H9 cells [4]; [10]): 0; Cells/ml (H9 cells [4]; 25 μM, dark): 9.9 × 10^5 Cells/ml; dead cells (H9 cells [4]; 25 μM, dark): 11; live cells (H9 cells [4]; 25 μM, dark): 99; Cells/ml (H9 cells [4]; [11]): 0.0 Cells/ml; dead cells (H9 cells [4]; [11]): 41; live cells (H9 cells [4]; [11]): 0; H9 cells inactivated or killed (H9 cells [4]; 5 mM or greater (so in the source), activated by light, 1440 min): ~100%; cytotoxicity at 25 µM (H9 cells [4]; Homo sapiens, H9, 24 h, 25 µM, dark, printed approximately 10% or less, read-out: cells inactivated in absence of light): ≤ 10%; viability at 5 µM (H9 cells [4]; Homo sapiens, H9, light or radiation study, 24 h, 5 μM, irradiated 10 J/cm^2, 420 nm): 0%; viability at 25 µM (H9 cells [4]; Homo sapiens, H9, light or radiation study, 24 h, 25 μM, irradiated 10 J/cm^2, 420 nm): 0%; viability at 100 µM (H9 cells [5]; no previous light activation): 28%; viability at 100 µM (H9 cells [5]; previous light activation): 0%; % Un-irradiated Fluorescence ([6]; 0 J/cm^2): 100%; Fluorescence Recovery in Dark ([6]; 0 hour, 4° C.): 18.2%; Fluorescence Recovery in Dark ([6]; 0 hour, 22° C.): 18.2%; % Un-irradiated Fluorescence ([6]; 10 J/cm^2, 420 nm): 97.8%; % Un-irradiated Fluorescence ([6]; 25 J/cm^2, 420 nm): 96.2%; % Un-irradiated Fluorescence ([6]; 50 J/cm^2, 420 nm): 74.9%; % Un-irradiated Fluorescence ([6]; 90 J/cm^2, 420 nm): 48.7%; irradiation induced loss of fluorescent intensity ([6]; 200 J/cm^2): about 80%; % Un-irradiated Fluorescence ([6]; 200 J/cm^2, 420 nm): 18.2%; Fluorescence Recovery in Dark ([6]; 18 hour, 4° C.): 24.6%; Fluorescence Recovery in Dark ([6]; 18 hour, 22° C.): 39.4%; Fluorescence Recovery in Dark ([6]; 43 hour, 4° C.): 36.8%; Fluorescence Recovery in Dark ([6]; 43 hour, 22° C.): 56.7%; initially activated species permanently losing fluorescence [6]: Approximately 50%; initially activated species recovering fluorescence [6]: Approximately 50%; ultimate fluorescent intensity regained, of initial ([6]; after 200 J/cm^2): approximately 40%; change of fluorescence emission intensity in absence of light ([6]; dark): lack of change of the value of fluorescence emission intensity

What does the source list for `CCCCCCN1C(=O)c2cccc3c(NCCNC(=O)CCCCC(=O)NCCNc4c(Br)cc5c6c(cccc46)C(=O)N(CCCCCC)C5=O)c(Br)cc(c23)C1=O` [Compound XLIV]?
Inferred Crosslinked Species ([7]; Cremophor EL): 8 Apopro-; Inferred Crosslinked Species, Gel mw ([7]; 8 Apoprotein I units): 141 kD; heavier bands [8]: many ill separated heavier bands merging together near; Inferred Crosslinked Species ([8]; first species): 2 G-actin; Inferred Crosslinked Species ([8]; second species): 3 G-actin; Inferred Crosslinked Species, Gel mw ([8]; 2 G-actin monomers): 94 kD; Inferred Crosslinked Species, Gel mw ([8]; 3 G-actin monomers): 141 kD; fluorescence, % of initial (dark) value ([6]; 200 J/cm^2, 420 nm): 32.2%; fluorescence recovered, % of initial value ([6]; 70 hours at 22° C.): 62.7%; fluorescence recovered, % of initial value ([6]; 166 hours at 22° C.): 64.0%; initially activated species permanently losing fluorescence [6]: Approximately 50%; initially activated species recovering fluorescence [6]: Approximately 50%
